The text below walks through data of patent publication US9650384B2, “Substituted pyrimidine compounds and methods of use and manufacture” (Duquesne University of the Holy Spirit, priority 2014, dated 2017).

The structures appear in SMILES notation. Like-named read-outs stand apart in the source and are kept apart here.

The term IC50 denotes the concentration at which inhibition is half-maximal.

Test [1] relates to CHO subline engineered to express human FRα (RT16). The test can be described thus: Growth inhibition assay, CHO subline RT16 expressing FRα. The format is cell-based. The note with it: read-out: IC50 RT16, FR.
The target of the next test is T1, GARFTase (Homo sapiens, UniProt P22102).
T1 sequence (P22102 1-1010): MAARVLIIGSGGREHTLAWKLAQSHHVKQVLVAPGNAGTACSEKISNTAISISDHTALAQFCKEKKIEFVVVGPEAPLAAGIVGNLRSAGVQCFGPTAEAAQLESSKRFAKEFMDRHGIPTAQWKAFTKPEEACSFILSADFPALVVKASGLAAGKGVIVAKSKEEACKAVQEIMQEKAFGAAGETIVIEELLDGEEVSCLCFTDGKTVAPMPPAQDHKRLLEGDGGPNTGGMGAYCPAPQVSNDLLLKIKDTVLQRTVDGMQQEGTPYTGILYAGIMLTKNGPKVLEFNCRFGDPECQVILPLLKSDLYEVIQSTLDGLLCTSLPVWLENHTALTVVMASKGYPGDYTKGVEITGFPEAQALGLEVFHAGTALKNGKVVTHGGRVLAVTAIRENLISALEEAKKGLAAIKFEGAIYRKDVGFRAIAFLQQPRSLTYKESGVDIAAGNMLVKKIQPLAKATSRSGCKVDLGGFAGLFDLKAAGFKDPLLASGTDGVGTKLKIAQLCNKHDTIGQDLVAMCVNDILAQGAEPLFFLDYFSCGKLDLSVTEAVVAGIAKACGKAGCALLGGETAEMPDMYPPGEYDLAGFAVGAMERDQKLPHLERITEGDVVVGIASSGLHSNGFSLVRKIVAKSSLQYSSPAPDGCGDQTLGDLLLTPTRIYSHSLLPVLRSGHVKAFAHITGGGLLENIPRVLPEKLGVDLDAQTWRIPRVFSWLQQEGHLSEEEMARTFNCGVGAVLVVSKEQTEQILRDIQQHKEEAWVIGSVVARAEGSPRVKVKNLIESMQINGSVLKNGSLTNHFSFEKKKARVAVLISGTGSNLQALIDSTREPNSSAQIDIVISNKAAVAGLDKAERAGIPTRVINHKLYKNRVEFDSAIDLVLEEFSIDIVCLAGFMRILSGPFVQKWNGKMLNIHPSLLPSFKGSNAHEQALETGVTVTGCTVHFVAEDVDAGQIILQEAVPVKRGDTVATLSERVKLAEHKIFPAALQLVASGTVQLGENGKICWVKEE
The note with it: reported in reference 1; cited from earlier work.

Another test addresses AICARFTase (Homo sapiens, UniProt P31939). The conditions noted are these: reported in reference 1; cited from earlier work.
For test [2], the system named is CHO subline engineered to express human PCFT (R2/PCFT4). The test can be described thus: Growth inhibition assay, CHO subline R2/PCFT4 expressing PCFT. The format is cell-based. The note with it: R2/PCFT4 cells.
Test [3] deals with KB human tumor subline (expressing RFC, FRα, and PCFT). The test can be described thus: Growth inhibition assay, KB human tumor subline. The format is cell-based.
The subject of test [4] is CHO subline engineered to express human RFC (PC43-10). The test can be described thus: Growth inhibition assay, CHO subline PC43-10 expressing human RFC. The format is cell-based.
Test [5] deals with transporter-null (R2) CHO cells. The test can be described thus: Growth inhibition assay, transporter-null R2 CHO cells. The format is cell-based. The conditions noted are these: Cricetulus griseus, Table 1, mean of 3 to 10 experiments.
Setting [6] is: Table 1, growth inhibition by 50% relative to cells without drug, mean of 3 to 10 experiments.

Sequence of AICARFTase (P31939 whole entry): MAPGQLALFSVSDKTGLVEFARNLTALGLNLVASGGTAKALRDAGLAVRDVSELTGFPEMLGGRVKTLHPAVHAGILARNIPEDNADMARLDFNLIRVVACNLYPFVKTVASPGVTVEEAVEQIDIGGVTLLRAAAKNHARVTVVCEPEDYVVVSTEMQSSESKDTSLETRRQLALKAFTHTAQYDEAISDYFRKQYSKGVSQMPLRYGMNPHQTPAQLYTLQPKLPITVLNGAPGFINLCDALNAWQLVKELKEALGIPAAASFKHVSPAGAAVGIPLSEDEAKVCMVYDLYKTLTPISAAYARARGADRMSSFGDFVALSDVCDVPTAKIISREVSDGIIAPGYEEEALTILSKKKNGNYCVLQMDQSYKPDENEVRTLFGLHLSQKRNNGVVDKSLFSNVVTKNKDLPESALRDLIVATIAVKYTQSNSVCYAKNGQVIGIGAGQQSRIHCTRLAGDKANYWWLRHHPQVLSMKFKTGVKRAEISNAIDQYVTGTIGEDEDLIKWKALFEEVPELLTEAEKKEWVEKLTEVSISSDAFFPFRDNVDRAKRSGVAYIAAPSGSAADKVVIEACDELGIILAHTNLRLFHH

For `Nc1nc2[nH]cc(CCCCc3ccc(C(=O)N[C@@H](CCC(=O)O)C(=O)O)cc3)c2c(=O)[nH]1` [Compound 3], the IC50 in test [1] (setting [6]) was 8.6 nM; in test [1] (Table 2), 8.6 nM; in test [2] (Table 1, mean of 3 to 10 experiments), 840 nM; in test [2] (Table 2) it was 840 nM; in test [3] (setting [6]), 12.7 nM; in test [3] (Table 2), 12.7 nM. Besides, the IC50 in test [4] (setting [6]) and in test [4] (Table 2) was 56.6 nM in each case. The “inhibition of GARFTase” value at GARFTase is “inhibited”. The “inhibition of AICARFTase” value on AICARFTase is listed as “inhibited”.

As for `Nc1nc2[nH]cc(CCCOc3ccc(C(=O)N[C@@H](CCC(=O)O)C(=O)O)cc3)c2c(=O)[nH]1` [Compound 9], the IC50 in test [1] (Table 2) is 42.2 nM; in test [2] (Table 2), 390 nM; in test [3] (Table 2), 51 nM; in test [4] (Table 2), 53.2 nM.

With `Nc1nc2[nH]cc(CCCSc3ccc(C(=O)N[C@@H](CCC(=O)O)C(=O)O)cc3)c2c(=O)[nH]1` [Compound 10], the 50% inhibitory concentration (IC50) is 281 nM in test [1] (Table 2), 549 nM in test [2] (Table 2), greater than 1000 nM in test [3] (Table 2) and greater than 1000 nM in test [4] (Table 2).

On to `Nc1nc2[nH]cc(CCCCc3cccc(C(=O)N[C@@H](CCC(=O)O)C(=O)O)c3)c2c(=O)[nH]1` [Compound 11], for which the IC50 is greater than 1000 nM in test [1] (Table 2), greater than 1000 nM in test [2] (Table 2), greater than 1000 nM in test [3] (Table 2) and 608 nM in test [4] (Table 2).

Take `Nc1nc2[nH]cc(CCc3ccc(C(=O)N[C@@H](CCC(=O)O)C(=O)O)cc3)c2c(=O)[nH]1` [PMX, Pemetrexed]: the IC50 in test [5] was greater than 1000 nM; in test [3] (Table 2), 9.94 nM; in test [4] (Table 2), 30.6 nM.
